Experimental data: patent US20240325336A1, “COMBINATION THERAPIES COMPRISING OXYGEN-CONTAINING STRUCTURALLY ENHANCED FATTY ACIDS FOR TREATMENT OF NON-ALCOHOLIC STEATOHEPATITIS” (NORTHSEA THERAPEUTICS B.V., priority 2020, published 2024)
Entries after “also recorded” stand apart in the source; their conditions may differ.

How the values were obtained:
male CDAA-HFD mice [1] = assay: CDAA/high-fat diet NASH mouse model: hepatic inflammation and NAFLD activity score; assay type: in vivo; settings: 8 weeks QD; for NAFLD activity scores (NAS): compared to untreated vehicle group (FIG. 8B); for number of inflammatory cells (per mm^2): compared to untreated vehicle group and to baseline levels (FIG. 7A); for inflammatory foci (per mm^2): compared to untreated vehicle group and to baseline levels (FIG. 7B)
From the text: (§1) Although the widely used methionine-choline deficient (MCD) diet consistently reproduces severe NASH-like hepatic inflammation and fibrosis in mice, it is also associated with severe weight-loss (loss of both skeletal muscle and fat mass). This is associated with an increased risk of death which presents major problems for long-term fibrogenesis experiments. […] In the current study, male mice (strain C57BI/6JRj) were fed choline deficient high-fat diets (45% of total calories from fat; “CDAA/high-fat” or “CDAA-HFD”). The NASH inducing diet was instigated 6 weeks prior to the commencement of administration of active agents in order to evaluate treatment and reversal of NASH parameters. The NASH inducing CDAA-HFD was continued for the 8 weeks of administration of the indicated active agents and combinations thereof.
(§2) Prior to administration of the activate agents, animals were randomized into treatment groups based on body weight. A baseline group (n=12) was terminated at study start after 6 weeks on the CDAA-HFD diet. CDAA-HFD fed mice (n=10-12 per group) received daily per oral (PO) treatment with vehicle, Compound A (112 mg/kg), OCA (30 mg/kg), semaglutide (30 nmol/kg SC), firsocostat (5 mg/kg), Compound A+Semaglutide (112 mg/kg+30 nmol/kg), Compound A+OCA (112 mg/kg+30 mg/kg), and Compound A+firsocostat (112 mg/kg+5 mg/kg) for 8 weeks. Terminal liver biopsy were analyzed for histopathological scores. Terminal quantitative endpoints included plasma/liver biochemistry and liver histomorphometry.
(§3) Liver samples stained with Hematoxylin and Eosin (H&E) or Picro Sirius Red (PSR) were scored for NAS components (steatosis, lobular inflammation, and ballooning degeneration) and fibrosis stage respectively using the clinical criteria outlined by Kleiner et al., Hepatology, 2005; 41. Total NAS represents the sum of scores for steatosis, inflammation, and ballooning, and ranges from 0-8.
(§4) NAS and fibrosis stage was determined by deep learning applications developed by Gubra (Denmark) using the VIS software (Visiopharm®, Denmark) for a more accurate and objective method for staging disease in DIO-NASH mouse models.
(§5) Scanned H&E stained slides were analyzed in several steps: • 1. Tissue detection at low magnification, followed by deep learning-based detection of portal triads and central veins at 10× magnification. • 2. Another deep learning application detected nuclei of hepatocytes with lipid droplets, hepatocytes without lipids, ballooned hepatocytes, and inflammatory cells at 20× magnification. Inflammatory foci were defined as a cluster of >3 inflammatory cells. • 3. The inflammation score of the liver tissue sample was the average score for all 20× fields.

male CDAA-HFD mice [2] = assay: CDAA/high-fat diet NASH mouse model: hepatic steatosis (H&E image analysis, steatosis score); assay type: in vivo; settings: 8 weeks QD; for hepatic steatosis area (relative liver lipids): compared to untreated vehicle group (FIG. 5A); for percentage of hepatocytes with lipid droplets: compared to untreated vehicle group (FIG. 5B); for steatosis scores: compared to untreated vehicle group (FIG. 6)
From the text: as §1, §2, §3, §4, §5
Steatosis score was calculated as percentage of hepatocytes with lipid droplets.
Hepatic steatosis area (relative liver lipids) was quantified on H&E stained slides by image analysis using the VIS software (Visiopharm®, Denmark). VIS protocols are designed to analyze the virtual slides in two steps: • 1. Tissue detection at low magnification (1× objective); and • 2. Detection of steatosis and tissue at high magnification (20× objective).
The quantitative estimates of steatosis were calculated as an area fraction as follows: […]

male CDAA-HFD mice [3] = assay: CDAA/high-fat diet NASH mouse model: hepatic fibrosis markers (hydroxyproline, galectin-3, PSR, α-SMA); assay type: in vivo; settings: 8 weeks QD; for galectin-3 hepatic fractional area: compared to untreated vehicle group (FIG. 9B); for hepatic fibrotic area determined by PSR staining: compared to untreated vehicle group (FIG. 10A); for sinusoidal fibrotic area (PSR): compared to untreated vehicle group (FIG. 10B)
From the text: as §1, §2
Scanned PSR stained slides were analyzed in several steps: • 1. Tissue detection at low magnification, followed by deep learning-based detection of portal triads and central veins at 10× magnification. Periportal zone was defined as 100 μm around the portal triads. • 2. Fibrosis fibers were detected using the linear Bayesian image analysis method in the periportal and sinusoidal zones. • 3. Bridging was detected using threshold image analysis based on a polynomial local linear filter feature. • 4. Different measures of size, shape and connectivity form both fibrosis and bridging fibrosis in the two zoned were used in a XGBoost classifier to predict fibrosis stage.
Immunohistochemistry (IHC)-positive staining was quantified by image analysis using the VIS software (Visiopharm®, Denmark) using two steps: • 1. Detection of tissue at low magnification (1× objective), excluding the liver capsule; and • 2. Detection of IHC-positive staining.
The quantitation of IHC-positive staining is calculated as an area fraction as follows: […]
IHC factional area quantification was assessed for galectin-3, collagen 1A1, and α-smooth muscle actin.
Hepatic factional area assessment with picrosirius red stain was determined using the same methods.
Hepatic fibrotic area was determined by staining with picrosirus red (PSR), which binds collagen, and histological quantitative assessment.

rodent NASH models = settings: APOE*3Leiden.CETP high-fat diet, ob/ob AMLN, STAM and CDAA/high-fat diet mouse models; WO2019111048; cited from earlier work
male CDAA-HFD mice [4] = assay: CDAA/high-fat diet NASH mouse model: plasma triglycerides and total cholesterol; assay type: in vivo; settings: 8 weeks QD, compared to untreated vehicle group (FIG. 3A)
From the text: as §1
(§6) The aim of this study was to evaluate the effects of 8 weeks of administration of Compound A, OCA, semaglutide, and firsocostat alone and in combination on metabolic parameters, hepatic pathology, and on NAFLD Activity Score including Fibrosis Stage in male CDAA-HFD mice.
Prior to administration of the activate agents, animals were randomized into treatment groups based on body weight. […] Terminal liver biopsy were analyzed for histopathological scores. Terminal quantitative endpoints included plasma/liver biochemistry and liver histomorphometry.

male CDAA-HFD mice [5] = assay: CDAA/high-fat diet NASH mouse model: liver total cholesterol and triglycerides; assay type: in vivo; settings: 8 weeks QD; for relative levels of liver total cholesterol (normalized to liver weight): compared to untreated vehicle group (FIG. 4A); for relative levels of liver triglycerides (normalized to liver weight): compared to untreated vehicle group (FIG. 4B)
From the text: as §1, §6, §2

[6] = CDAA/high-fat diet NASH mouse model: relative body weight and liver weight; assay type: in vivo; settings: CDAA-HFD mice, 8 weeks QD; for liver weight: compared to untreated vehicle group (FIG. 1B)
From the text: as §1, §6, §2

APOE*3Leiden.CETP mice = settings: WO2016173923A1, cited from earlier work

Molecule: COc1ccccc1[C@H](Cn1c(=O)n(C(C)(C)C(=O)O)c(=O)c2c(C)c(-c3ncco3)sc21)OC1CCOCC1 [firsocostat]
- NAFLD activity scores (NAS) (male CDAA-HFD mice [1]): significantly decreased
- hepatic steatosis area (relative liver lipids) (male CDAA-HFD mice [2]): significantly greater
- percentage of hepatocytes with lipid droplets (male CDAA-HFD mice [2]): significantly decreased
- steatosis scores (male CDAA-HFD mice [2]): decreased
- galectin-3 hepatic fractional area (male CDAA-HFD mice [3]): neither semaglutidue nor firsocostat having a significant effect

Molecule: CC/C=C\C/C=C\C/C=C\C/C=C\C/C=C\CCCCOC(CC)C(=O)O (centres unmarked) [Compound A, 2-((5Z,8Z,11Z,14Z,17Z)-icosa-5,8,11,14,17-pentaenyloxy)butanoic acid]
- effect on aspects of NASH (hepatic steatosis, inflammation, fibrosis) (rodent NASH models): address multiple aspects of NASH, including hepatic steatosis, inflammation, and fibrosis
- NAFLD activity scores (NAS) (male CDAA-HFD mice [1]): significantly decreased
- number of inflammatory cells (per mm^2) (male CDAA-HFD mice [1]): significant decrease; also recorded: below the baseline level
- inflammatory foci (per mm^2) (male CDAA-HFD mice [1]): significant decrease; also recorded: below the baseline level
- plasma triglycerides (male CDAA-HFD mice [4]): significantly decreased
- relative levels of liver total cholesterol (normalized to liver weight) (male CDAA-HFD mice [5]): significant decrease
- relative levels of liver triglycerides (normalized to liver weight) (male CDAA-HFD mice [5]): significant decrease
- percentage of hepatocytes with lipid droplets (male CDAA-HFD mice [2]): significantly decreased
- steatosis scores (male CDAA-HFD mice [2]): decreased
- liver weight [6]: decreased
- galectin-3 hepatic fractional area (male CDAA-HFD mice [3]): significantly decreased
- hepatic fibrotic area determined by PSR staining (male CDAA-HFD mice [3]): significantly decreased
- sinusoidal fibrotic area (PSR) (male CDAA-HFD mice [3]): Neither compound alone had a significant effect
- hepatic area expressing α-SMA (male CDAA-HFD mice [3]; compared to untreated vehicle group (FIG. 11B)): neither Compound A nor OCA significantly affecting

Molecule: semaglutide
- number of inflammatory cells (per mm^2) (male CDAA-HFD mice [1]): not having a significant effect
- inflammatory foci (per mm^2) (male CDAA-HFD mice [1]): not having a significant effect
- relative levels of liver total cholesterol (normalized to liver weight) (male CDAA-HFD mice [5]): did not significantly affect
- relative levels of liver triglycerides (normalized to liver weight) (male CDAA-HFD mice [5]): not significantly affecting
- hepatic steatosis area (relative liver lipids) (male CDAA-HFD mice [2]): not significantly affecting either parameter; also recorded: did not have a significant effect
- percentage of hepatocytes with lipid droplets (male CDAA-HFD mice [2]): not significantly affecting either parameter; also recorded: did not significantly affect
- liver weight [6]: decreased
- last recorded relative body weight ([6]; compared to vehicle (FIG. 1A)): decreased
- galectin-3 hepatic fractional area (male CDAA-HFD mice [3]): not having a significant effect
- galectin-3 hepatic fractional area (male CDAA-HFD mice [3]; listed as semaglutidue): neither semaglutidue nor firsocostat having a significant effect
- hepatic fibrotic area determined by PSR staining (male CDAA-HFD mice [3]): did not significantly affect
- sinusoidal fibrotic area (PSR) (male CDAA-HFD mice [3]): Neither compound alone had a significant effect
- galectin-3 expressing area compared to baseline (male CDAA-HFD mice [3]; vs baseline (6 weeks CDAA-HFD, before therapy) (FIG. 9B)): significantly increased

Molecule: CC/C=C\C/C=C\C/C=C\C/C=C\C/C=C\CCCCSC(CC)(CC)C(=O)O [Compound N, 2-ethyl-2-((5Z,8Z,11Z,14Z,17Z)-icosa-5,8,11,14,17-pentaenylthio)butanoic acid]
- fibrosis (as measured by hydroxyproline/proline ratio) (APOE*3Leiden.CETP mice; APOE*3Leiden.CETP mice): effective in reducing fibrosis
- influx of inflammatory cells into the liver (APOE*3Leiden.CETP mice): prevented
- preventing diet-induced hepatic fibrosis, compared with rosiglitazone (APOE*3Leiden.CETP mice): superior to rosiglitazone
